Assay results taken from ChEMBL document CHEMBL3301472, “MMV Malaria Box HIV and cytotoxicity screening”.

Experiments:
Assay type in all cases: toxicity, cell-based
[1] = MMV: MTT Cytotoxicity Assay Day 7 pi of Assay #7 (compound washed out Day 1 pi), U87-CD4-CXCR4 cells, % cell death @ 5mM compound; conditions: human, u87-cd4-cxcr4, 5000 µM
[2] = MMV: MTT Cytotoxicity Assay Day 3 pi, U87-CD4-CXCR4 cells, % cell death @ 5mM compound; conditions: human, u87-cd4-cxcr4, 5000 µM
[3] = MMV: MTT Cytotoxicity Assay Day 7 pi of Assay #6 (compound washed out Day 1 pi), U87-CD4-CCR5 cells, % cell death @ 5mM compound; conditions: human, u87-cd4-ccr5, 5000 µM
[4] = MMV: MTT Cytotoxicity Assay Day 7 pi of Assay #11 (NO washout), U87-CD4-CXCR4 cells, % cell death @ 5mM compound; conditions: human, u87-cd4-cxcr4, 5000 µM
[5] = MMV: MTT Cytotoxicity Assay Day 7 pi of Assay #10 (NO washout), U87-CD4-CCR5 cells, % cell death @ 5mM compound; conditions: human, u87-cd4-ccr5, 5000 µM
[6] = MMV: MTT Cytotoxicity Assay Day 3 pi, U87-CD4-CCR5 cells, % cell death @ 5mM compound; conditions: human, u87-cd4-ccr5, 5000 µM

Compound | % Cell Death [1] | % Cell Death [2] | % Cell Death [3] | % Cell Death [4] | % Cell Death [5] | % Cell Death [6]
CCOc1c(Br)cc(C2C(C(=O)OC)=CN(C)C=C2C(=O)OC)cc1OC | 19 | 21 | -1 | 30 | 30 | 30
CCCCCn1c(=N)n(CC(O)COc2cccc(C)c2)c2ccccc21.Cl (centres undefined) | 60 | 71 | 65 | 110 | 115 | 99
CCOC(=O)c1c(C)n(-c2ccccc2)c2ccc(OC(=O)c3cc(OC)c(OC)c(OC)c3)cc12 | 2 | 34 | -12 | -19 | 12 | -4
CCCN(CCC)CCCNC(=O)c1cc2c(-c3ccc(OC)c(OC)c3)nn(C)c2s1 | -24 | 9 | 59 | 103 | 100 | 51
CN1C=C(c2ccc3ccccc3n2)C(c2c[nH]c3ccccc23)c2ccccc21 (centres undefined) | 38 | 46 | 13 | 0 | 161 | 94
Cc1ccc(-c2cc3c(nn2)-c2ccccc2C3=O)cc1 | 58 | 57 | 48 | 96 | 106 | 46
CCOC(=O)c1c(NC(=O)c2ccccc2)sc2c(O)c(CN(CC)CC)ccc12 | 40 | -8 | -2 | 25 | 25 | -7
CCN(CC)c1ccc(NC(=O)c2cccs2)cc1 | 43 | 56 | 18 | 102 | 106 | 94
Oc1ccc(Br)cc1CN1CCN(Cc2ccc(Cl)cc2)CC1 | 29 | 69 | 12 | 44 | 46 | 27
CN1c2ccccc2N(C)C1c1ccc2c(c1)OCO2 | 16 | 3 | 10 | -2 | 1 | -7
CCOc1ccc(-c2nc(NC(=O)c3cccc(S(C)(=O)=O)c3)sc2C)cc1 | -38 | -6 | 0 | 29 | 2 | 5
COc1ccc2nc(N)nc(C)c2c1 | -3 | 34 | -35 | 15 | 17 | 15
Cc1cccc(-n2ncc3c(O)nc(-n4nc(C)cc4NC(=O)c4cc5ccccc5o4)nc32)c1 | 1 | 39 | 23 | 82 | 23 | 6
O=C(c1ccccc1F)N(Cc1ccc(Cl)cc1)c1ccccn1 | -34 | 44 | 22 | 71 | 87 | 50
Cc1ccc(-c2cc3c(SCC(=O)Nc4cc(C(F)(F)F)ccc4Cl)nccn3n2)cc1 | -26 | 35 | 12 | 2 | 24 | 18
CCCCCCc1cc(O)c2c3c(c(=O)oc2c1)CCC(C)C3 (centres undefined) | 16 | 20 | 16 | 9 | 26 | 16
CCCCOc1ccc(C(=O)Nc2cc(C)on2)cc1 | -14 | 31 | -17 | 33 | 4 | 54
c1ccc2cc3c(Nc4ccc(N5CCOCC5)cc4)ccnc3cc2c1 | 98 | 97 | 99 | 108 | 106 | 91
CC(C)(C)c1ccc(C(=O)Nc2nc3ccccc3s2)cc1 | -23 | 12 | 20 | -30 | 24 | 1
CCOc1cc(Br)c(C(C)NC(=O)c2cccc(OC)c2)cc1OCC (centres undefined) | 11 | -7 | 13 | -7 | 28 | -32

Compound | % Cell Death [1] | % Cell Death [2] | % Cell Death [3] | % Cell Death [4] | % Cell Death [5] | % Cell Death [6]
O=c1nc(C=Cc2ccc(Br)cc2)oc2ccccc12 | 24 | 23 | -7 | -17 | 35 | 17
CCN1CCCC1CNc1[nH]cnc2c3cc(Cl)ccc3nc1-2 (centres undefined) | -7 | 23 | 26 | 14 | 40 | 45
O=C(Nc1ccc(Cl)cc1C(=O)Nc1ccncc1)c1ccc(Cl)cc1Cl | 75 | 21 | 50 | 87 | 15 | 0
CCN(Cc1ccccc1)C1CCN(Cc2cc(Br)ccc2O)CC1.O=C(O)C(=O)O | 0 | 27 | 6 | -25 | 20 | -5
COc1cccc(-c2nn(C)c3sc(C(=O)NCCN4CCN(c5ccccc5F)CC4)cc23)c1 | -4 | 64 | 2 | 13 | 33 | 21
COc1ccccc1CNC(=O)CCn1c(=O)[nH]c2ccsc2c1=O | -19 | 10 | -12 | -15 | -16 | 34
COc1ccc(-c2cc(=O)oc3c4c(ccc23)OCN(Cc2ccc(F)cc2)C4)cc1 | -9 | 21 | 16 | -26 | 29 | 20
CN(N=O)C1=C(NC2CCCCC2)C(=O)c2ccccc2C1=O | 36 | 45 | -53 | 15 | 30 | 41
Cc1cc(N2CCCC2)nc(Nc2ccc(NC(=O)CCc3ccccc3)cc2)n1 | -12 | 30 | 20 | -21 | 0 | 14
Nc1nc(Nc2cccc(F)c2)nc2ccccc12 | -13 | 38 | -19 | 36 | 45 | 42
COc1ccc(CCn2c(=N)c(C(=O)NCc3cccnc3)cc3c(=O)n4cccc(C)c4nc32)cc1 | 35 | 15 | 32 | 8 | 4 | 1
COc1ccc(Nc2cc(C)nc(NCc3ccccc3)n2)cc1 | 30 | 94 | 30 | 73 | 92 | 41
CCCN(CCC)CC(O)COc1ccccc1C(=O)Nc1ccccc1 (centres undefined) | 14 | 22 | -14 | -27 | 34 | 33
CCCCc1c(C)nc2c(OC)cccc2c1O | 17 | 52 | 43 | 46 | 74 | 0
CCOc1cc(CNC(C)C(O)c2ccccc2)cc(Cl)c1OCC (centres undefined) | 25 | 89 | 32 | 73 | 67 | 40
COc1cc(-c2nc(-c3ccc(Sc4ccccc4)cc3)c(-c3ccccc3)[nH]2)cc(OC)c1O | -13 | 29 | 5 | -41 | 33 | 18
OC1=C2C(=Nc3ccccc3SC2c2ccccc2)c2ccccc21 (centres undefined) | 24 | 20 | -22 | -20 | -15 | 37
COCCN(C(=O)Cc1cccs1)C(C(=O)NCc1ccc(OC)cc1)c1ccc(C(C)C)cc1 (centres undefined) | -10 | 12 | 16 | 68 | 140 | 13
CCOC(=O)c1cn(CC)c2cc(N(C)CCc3ccc(OC)c(OC)c3)c(F)cc2c1=O | -40 | -10 | -4 | -17 | 27 | 22
